{"source": "paper PMC13051451", "about": "“A Charge-Reversal Point Mutation Completely Depletes Flavin Chromophore from European Robin Cryptochrome 4a Protein” (The Journal of Physical Chemistry Letters, 2026)", "key": {"[1]": {"target": "T1, European robin Cryptochrome 4a (ErCry4a) (Erithacus rubecula, UniProt A0A2I4SZI9)", "T1 construct": "anion exchange purified; monomer with minor dimer", "T1 sequence (A0A2I4SZI9 entry or part of it)": "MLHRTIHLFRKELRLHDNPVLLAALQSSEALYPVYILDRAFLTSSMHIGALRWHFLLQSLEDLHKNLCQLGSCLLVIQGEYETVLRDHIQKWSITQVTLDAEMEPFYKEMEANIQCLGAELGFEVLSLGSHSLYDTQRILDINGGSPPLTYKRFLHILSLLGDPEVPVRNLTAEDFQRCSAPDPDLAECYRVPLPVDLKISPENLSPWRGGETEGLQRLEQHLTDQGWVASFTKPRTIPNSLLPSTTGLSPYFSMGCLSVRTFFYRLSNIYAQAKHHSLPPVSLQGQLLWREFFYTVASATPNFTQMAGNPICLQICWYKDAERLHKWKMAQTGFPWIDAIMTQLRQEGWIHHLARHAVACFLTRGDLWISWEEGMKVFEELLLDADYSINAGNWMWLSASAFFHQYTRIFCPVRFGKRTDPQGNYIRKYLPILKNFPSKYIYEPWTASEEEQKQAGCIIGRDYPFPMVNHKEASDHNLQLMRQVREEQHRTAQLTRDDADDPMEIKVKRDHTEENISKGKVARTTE", "assay": "native electrospray mass spectrometry; UV-vis absorption", "format": "binding", "details": "co-purified FAD, noncovalent; 20 uM protein, 150 mM ammonium acetate, pH 8"}, "[2]": {"target": "T2, European robin Cryptochrome 4a (ErCry4a) (Erithacus rubecula, UniProt A0A2I4SZI9, R356E)", "T2 construct": "anion exchange purified; monomer with minor dimer", "T2 sequence (A0A2I4SZI9 entry or part of it R356E)": "as the sequence (A0A2I4SZI9 entry or part of it) above, with R356E counted along it", "assay": "native electrospray mass spectrometry; UV-vis absorption", "format": "binding", "details": "co-purified FAD, noncovalent; 20 uM protein, 150 mM ammonium acetate, pH 8; no bound FAD detected (non-binder)"}}}
{"molecule": "Cc1cc2nc3c(=O)[nH]c(=O)nc-3n(C[C@H](O)[C@H](O)[C@H](O)COP(=O)(O)OP(=O)(O)OC[C@H]3O[C@@H](n4cnc5c(N)ncnc54)[C@H](O)[C@@H]3O)c2cc1C", "note": "[flavin adenine dinucleotide]", "values": [{"measurement": "% of protein with FAD bound", "setting": "[1]", "value": 94, "unit": "%"}, {"measurement": "native electrospray mass spectrometry; UV-vis absorption", "setting": "[2]", "value": "The R356E mutant is detected exclusively without FAD"}]}
